Assay results from patent US12565687B2, “Glucose in solid form and process for manufacturing glucose in solid form” (CARGILL, INCORPORATED, priority 2021, dated 2026).

Assay: Dissolution speed test in distilled water
Assay type: physicochemical
Conditions: 1.5 g solid, particle sizes 425-600 μm, stirred in distilled water at ambient temperature
Protocol: Dissolution speed tests of the produced semi-crystalline particles were performed by comparison with the dissolution speed of pure crystalline glucose i.e. glucose monohydrate. Two comparative runs were carried out by using an initial mass of 1.5 g of solid inventive semi-crystalline glucose particles vs. crystalline glucose monohydrate, both having particle sizes in the range of 425-600 μm. The solid was stirred in a cylindrical vessel with distilled water at ambient temperature. In both the runs the solid disappearance was detected after 25 s, showing an equal dissolution speed of the produced semi-crystalline glucose in comparison to the crystalline glucose monohydrate.

Compound: O.O=C[C@H](O)[C@@H](O)[C@H](O)[C@H](O)CO [crystalline glucose monohydrate, glucose monohydrate]
- time until solid disappearance was detected (dissolution speed): 25 s
